# What was measured:
# Caco2 = test: CellTiter-Glo cell viability, Caco2; assay type: cell-based, human; conditions: 48 h, dose curve 625 μM-40000 μM, FIG. 3
# Procedure: (§1) Cell lines: Human colon cancer cell lines CCD-18Co and Caco2 (American Type Culture Collection [ATCC], Bethesda, MD) were maintained in Eagle's Minimum Essential Medium (Thermo Fisher Scientific, MA) supplemented with 100,000 U/L of penicillin, 100,000 μg/L of streptomycin, and 20% fetal bovine serum (FBS). HT29 (American Type Culture Collection [ATCC], Bethesda, MD) was maintained in McCoy's 5a Medium Modified (Thermo Fisher Scientific, MA) supplemented with 100,000 U/L of penicillin, 100,000 μg/L of streptomycin, and 10% fetal bovine serum (FBS). The following cells were also tested: MDA 231 Breast Cancer Cells, U87 Glioblastoma Cells, U251 Glioblastoma Cells and Dul45 Prostate Cancer Cells. All cells were maintained in Eagles Medium as described above.
# (§2) The cells were subjected to cell viability assays using The CellTiter-Glo luminescent cell viability kit (Promega, catalog number: G7570). luminescence was measured using microplate luminometer (luminoskan™ ascent, Thermo-Fisher Scientific, MA). Background luminescence was measured in medium without cells and subtracted from experimental values.
# [1] = test system: human colon cancer cell lines (CCD-18Co, Caco2, HT29); test: CellTiter-Glo cell viability, three human colon cancer cell lines; assay type: cell-based; conditions: dose-response curves, 48 h, FIGS. 1-3
# Procedure: as §1, with “The following cells were also tested: MDA 231 Breast Cancer Cells, U87 Glioblastoma Cells, U251 Glioblastoma Cells and Dul45 Prostate Cancer Cells.” left out
# as §2
# BIRC5 expression = test: Cardiac glycosides that inhibit BIRC5 expression in colorectal cancer; assay type: cell-based
# HT29 = test: CellTiter-Glo cell viability, HT29; assay type: cell-based, human; conditions: 48 h, dose curve 12.5 nM-800 nM, FIG. 1
# Procedure: as §1, §2
Compound,sensitivity of cell viability (Caco2),"cell viability, single drug alone [1]",inhibition of BIRC5 expression (BIRC5 expression),sensitivity of cell viability (HT29)
CN(C)C(=N)N=C(N)N [Metformin],sensitive,reduced cell viability to varying degrees,–,–
C[C@@H]1O[C@@H](O[C@H]2C[C@@H](O)[C@]3(CO)[C@H]4[C@H](O)C[C@]5(C)[C@@H](C6=CC(=O)OC6)CC[C@]5(O)[C@@H]4CC[C@]3(O)C2)[C@H](O)[C@H](O)[C@H]1O [Ouabain],–,–,inhibit BIRC5 expression,–
C[C@H]1O[C@@H](O[C@H]2[C@@H](O)C[C@H](O[C@H]3[C@@H](O)C[C@H](O[C@H]4CC[C@@]5(C)[C@H](CC[C@@H]6[C@@H]5C[C@@H](O)[C@]5(C)[C@@H](C7=CC(=O)OC7)CC[C@]65O)C4)O[C@@H]3C)O[C@@H]2C)C[C@H](O)[C@@H]1O [Digoxin],–,reduced cell viability to varying degrees,inhibit BIRC5 expression,very sensitive
CC(=O)O[C@H]1C[C@H](O[C@H]2[C@@H](O)C[C@H](O[C@H]3[C@@H](O)C[C@H](O[C@H]4CC[C@@]5(C)[C@H](CC[C@@H]6[C@@H]5C[C@@H](O)[C@]5(C)[C@@H](C7=CC(=O)OC7)CC[C@]65O)C4)O[C@@H]3C)O[C@@H]2C)O[C@H](C)[C@H]1O[C@@H]1O[C@H](CO)[C@@H](O)[C@H](O)[C@H]1O [Lanatoside C],–,–,inhibit BIRC5 expression,–
C[C@]12CC[C@H](O)C[C@H]1CC[C@@H]1[C@@H]2CC[C@]2(C)[C@@H](c3ccc(=O)oc3)CC[C@]12O [bufalin],–,–,inhibit BIRC5 expression,–
C[C@]12CC[C@H](O)C[C@H]1CC[C@@H]1[C@@H]2CC[C@]2(C)[C@@H](C3=CC(=O)OC3)CC[C@]12O [Digitoxigenin],–,–,inhibit BIRC5 expression,–
